Measured values taken from patent US9051596B2, “Method for screening inhibitory substances to inflammatory skin-aging” (AMOREPACIFIC CORPORATION, priority 2011, dated 2015).

B1: IFN-γ: interferon-γ acquired from Sigma Aldrich, enhances inflammatory stimulation by LPS (protein, UniProt P01579 24-161, looked up)
Interferon gamma: QDPYVKEAENLKKYFNAGHSDVADNGTLFLGILKNWKEESDRKIMQSQIVSFYFKLFKNFKDDQSIQKSVETIKEDMNVKFFNSNKKKRDDFEKLTNYSVTDLNVQRKAIHELIQVMAELSPAAKTGKRKRSQMLFRG

Columns and labels:
Assay type in all cases: cell-based, human
TNF-α [1] = experiment: Production of TNF-α in THP-1 cells treated with glycitein and stimulants (TNF-α ELISA kit); settings: THP-1 cells, 0, 0.1, 1 and 10 μM glycitein, then 1 μg/mL LPS and 500 UNITs IFN-γ, FIG. 9
Protocol: THP-1 cells (acquired from Korean Cell Line Bank) were seeded onto a 6-well plate, with 5×10^5 cells per well, and treated with 0, 0.1, 1 and 10 μM glycitein. […] After culturing for 24 hours, the culture medium was centrifuged at 1000 rpm for 3 minutes and the supernatant was taken. The concentration of TNF-α in the culture medium was determined using a TNF-α ELISA kit.

inflammatory cytokines = experiment: Production of inflammatory cytokines in THP-1 cells treated with glycitein and stimulants (cytokine array kit); settings: 10 μM glycitein, then 1 μg/mL LPS and 500 UNITs IFN-γ, FIG. 10
Protocol: THP-1 cells (acquired from Korean Cell Line Bank) were seeded onto a 6-well plate, with 5×10^5 cells per well, and treated with 10 μM glycitein. […] The cells untreated or treated only with the stimulant were used as a control group. The culture medium was centrifuged at 1000 rpm for 3 minutes and the supernatant was taken. The inflammatory cytokines included in the cell culture medium were identified using a cytokine array kit (R&D Systems).

MMP-1 = experiment: Production of MMP-1 in NHF cells treated with glycitein and stimulated THP-1 cell culture medium (MMP-1 assay kit); settings: NHF cells pretreated with 10 μM glycitein, then stimulated THP-1 culture medium, FIG. 12
Protocol: THP-1 cells (acquired from Korean Cell Line Bank) were seeded onto a 6-well plate, with 5×10^5 cells per well, and cultured in an RPMI-1640 medium (acquired from Lonza) containing 10% (v/v) FBS, 100 U/mL penicillin and 100 μg/mL streptomycin under the condition of 37° C. and 5% CO2 for 24 hours. Also, NHF cells (acquired from Lonza) were seeded onto a 24-well plate, with 3×10^4 cells per well, and cultured in a DMEM medium (acquired from Lonza) containing 10% (v/v) FBS, 100 U/mL penicillin and 100 μg/mL streptomycin under the condition of 37° C. and 5% CO2 for 24 hours. […] The THP-1 cell culture medium was centrifuged at 1000 rpm for 3 minutes and the supernatant was taken. The NHF cells were treated with the supernatant. NHF cells treated with serum-free DMEM (acquired from Lonza) were used as an untreated group. After culturing for 24 hours, the concentration of MMP-1 in the NHF cells was measured using an MMP-1 assay kit and the ratio of the concentration of MMP-1 relative to the untreated group was calculated.

THP-1 cells [2] = experiment: Viability of THP-1 cells treated with glycitein, optionally with LPS and IFN-γ (cell counting kit); settings: 24 hours
Protocol: (§1) THP-1 cells (acquired from Korean Cell Line Bank) were seeded onto a 96-well plate, with 3×10^4 cells per well, and cultured in an RPMI-1640 medium (acquired from Lonza) containing 10% (v/v) FBS, 100 U/mL penicillin and 100 μg/mL streptomycin under the condition of 37° C. and 5% CO2 for 24 hours. […] After treating with a cell counting kit reagent, with 1/10 the volume of each well, and culturing for 2 hours, O.D. value was measured using SpectraMax.

NHF cells = experiment: Viability of NHF cells treated with glycitein and stimulants (cell counting kit); settings: 0.1-10 μM glycitein together with 1 μg/mL LPS and 500 UNITs IFN-γ, 24 hours, FIG. 11
Protocol: as §1, with “NHF” for “THP-1”, “Lonza)” for “Korean Cell Line Bank)”, “1×10^4” for “3×10^4”, “a DMEM” for “an RPMI-1640”, “hours, then” for “hours,”

TNF-α [3] = experiment: Production of TNF-α in THP-1 cells treated with LPS and/or IFN-γ (TNF-α ELISA kit); settings: IFN-γ alone, all concentrations (250, 500, 1000 UNITs), FIG. 1
Protocol: THP-1 cells (acquired from Korean Cell Line Bank) were seeded onto a 6-well plate, with 5×10^5 cells per well, and cultured in an RPMI-1640 medium (acquired from Lonza) containing 10% (v/v) FBS, 100 U/mL penicillin and 100 μg/mL streptomycin under the condition of 37° C. and 5% CO2 for 24 hours. Subsequently, the cells were cultured for 24 hours after treating with three kinds of LPS derived from Escherichia coli (E. coli O111:B4, E. coli O55:B5 and E. coli EH100) and two kinds of LPS derived from Salmonella [Salmonella typhosa (S. typhosa) and Salmonella typhimurium (S. typhimurium), acquired from Sigma Aldrich], at concentrations of 0, 0.1 and 1 μg/mL, and with 0, 250, 500 and 1000 UNITs of INF-γ (acquired from Sigma Aldrich). Subsequently, the culture medium was centrifuged at 1000 rpm for 3 minutes and the supernatant was taken and then the concentration of TNF-α in the supernatant was determined using a TNF-α ELISA kit.

THP-1 cells [4] = experiment: Viability of THP-1 cells treated with LPS and IFN-γ (cell counting kit)
Protocol: as §1, with “hours, cell viability was determined by measuring” for “hours,”, “value” for “value was measured”

Molecule | concentration of TNF-α (TNF-α [1]) | amount of the inflammatory cytokines produced upon treatment with the stimulant (inflammatory cytokines) | production of MMP-1 (MMP-1) | cytotoxicity (THP-1 cells [2]; glycitein alone, 10 μM or lower, FIG. 7) | cytotoxicity (THP-1 cells [2]; glycitein together with 1 μg/mL LPS and 500 UNITs IFN-γ, FIG. 8) | cytotoxicity (NHF cells) | effect on the production of TNF-α (TNF-α [3]) | cytotoxicity (THP-1 cells [4])
COc1cc2c(=O)c(-c3ccc(O)cc3)coc2cc1O [glycitein] | lower as the concentration of glycitein increased | decreased | decreased production of MMP-1 | no cytotoxicity | no cytotoxicity | no cytotoxicity | – | –
B1 | – | – | – | – | – | – | no effect | no cytotoxicity
